20 molecules from patent publication US5559232A, “Carboxamides” (Hoffmann-La Roche Inc., priority 1993, dated 1996) can be followed below.

A word on the Ki: it is a measure of affinity in units of concentration, obtained from inhibition or displacement.

Test [1] has as its target human thrombin (Homo sapiens, UniProt P00734). As to the kind of experiment: inhibition of the amidolytic activity of thrombin (chromogenic substrate S-2238). It is filed as biochemical. The note with it: for Ki: human thrombin 0.5 nM, substrate S-2238, pH 7.8, room temperature; for q (ratio of the inhibition of trypsin to the inhibition of thrombin): specificity: Ki trypsin / Ki thrombin. The protocol:
A differential inhibition of thrombin and other serine proteases by the above compounds is desirable in order to obtain compounds having as high a specificity as possible and at the same time to avoid possible side-effects.
Specific chromogenic peptide substrates can be used to determine the inhibition of the catalytic activity of the above proteases. The inhibition of the amidolytic activity of thrombin and trypsin by the above guanidines was determined as described hereinafter.
The measurements were carried out on microtitre plates at room temperature. For this, in each well of the plate 150 μl of buffer (50 mM Tris, 100 mM NaCl, 0.1% polyethylene glycol; pH 7.8) were mixed with 50 μl of the inhibitor dissolved in DMSO and diluted in the buffer, and 25 μl of human thrombin (0.5 nM final conc.) were added. After incubation for 10 minutes the reaction was started by the addition of chromogenic substrate S-2238 (H-D-Phe-Pip-Arg-paranitroaniline from Kabivitrum; 10 or 50 μm final conc.) and the hydrolysis of the substrate was followed spectrophotometrically on a kinetic microtiter plate reader for 5 minutes. After graphical presentation of the inhibition curves the Ki values were determined according to the method described in Blochem. J. 55, 1955, 170-171.

Test [2] addresses trypsin. The experiment in a line: inhibition of the amidolytic activity of trypsin (chromogenic substrate S-2251). The class given is biochemical. The note with it: substrate S-2251, 200 and 750 μM, otherwise analogous to thrombin.

In the case of `CCOC(=O)CN(C(=O)[C@H](CC(=O)NC[C@@H]1CCCN(C(=N)N)C1)NC(=O)NCc1ccccc1)C1CC1` [Example 9a, ethyl [[(S)-3-[(S)-1-(amino-imino-methyl)-piperidin-3-ylmethylcarbamoyl]-2-(3-benzyi-ureido)-propionyl]-cyclopropylamino]-acetate], the Ki in test [1] was determined as 1.3 µM; in test [2] it was 95 µM. For the same molecule, the “q (ratio of the inhibition of trypsin to the inhibition of thrombin)” value in test [1] came out at 73.
The like results for `CCOC(=O)CN(C(=O)[C@H](CC(=O)NC[C@@H]1CCCN(C(=N)N)C1)NC(=O)NCc1ccco1)C1CC1` [Example 9b1, Ethyl [[(S)-3-[(S)-1-(amino-imino-methyl)-piperidin-3-ylmethylcarbamoyl]-2-(3-furan-2-ylmethyl-ureido)-propionyl]-cyclopropyl-amino]-acetate] were, in that order, 1.5 µM, 80 µM and 53.
The matching figures for `CCCCN(CCC(=O)OCC)C(=O)[C@H](CC(=O)NC[C@@H]1CCCN(C(=N)N)C1)NC(=O)NCc1ccco1` [Example 10, Ethyl 3-[[(S)-3-[(S)-1-(amino-imino-methyl)-piperidin-3-ylmethylcarbamoyl]-2-(3-furan-2-ylmethyl-ureido)-propionyl]-butylamino]-propionate]: 0.25 µM, 51 µM and 204.
The like results for `N=C(N)N1CCC[C@@H](CNC(=O)C[C@H](NC(=O)NCc2ccccc2)C(=O)N(CC(=O)O)C2CC2)C1` [Example 11, [[(S)-3-[(S)-1-(amino-imino-methyl)-piperidin-3-ylmethylcarbamoyl]2-(3-benzyl-ureido)-propionyl]-cyclopropyl-amino]-acetic acid] were, in that order, 0.043 µM, 35 µM and 814.
On to `CCCCC(=O)N[C@@H](CC(=O)NC[C@@H]1CCCN(C(=N)N)C1)C(=O)N(CC(=O)OCC)C1CC1` [Example 13a, Ethyl [[(S)-3-[(S)-1-(amino-imino-methyl)-piperidin-3-ylmethylcarbamoyl]-2-pentanoylamino-propionyl]-cyclopropyl-amino]acetate], for which, in test [1], the Ki was 2.7 µM and the “q (ratio of the inhibition of trypsin to the inhibition of thrombin)” value was determined as 26. The molecule further registered a Ki in test [2] of 70 µM.
The matching figures for `CCCCCC(=O)N[C@@H](CC(=O)NC[C@@H]1CCCN(C(=N)N)C1)C(=O)N(CC(=O)OCC)C1CC1` [Example 13b, ethyl [[(S)-3-[(S)-1-(amino-imino-methyl)-piperidin-3-ylmethylcarbamoyl]-2-hexanoylamino-propionyl]-cyclopropyl-amino]acetate]: 0.41 µM, 183 and 75 µM.
For `CCOC(=O)CN(C(=O)[C@H](CC(=O)NC[C@@H]1CCCN(C(=N)N)C1)NC(=O)c1ccccc1)C1CC1` [Example 13d, ethyl [[(S)-3-[(S)-1-(amino-imino-methyl)-piperidin-3-ylmethylcarbamoyl]-2-benzoylamino-propionyl]-cyclopropyl-amino]-acetate], in test [1], the Ki came to 4.7 µM and the “q (ratio of the inhibition of trypsin to the inhibition of thrombin)” value was found to be 5. The same molecule returned a Ki in test [2] of 23.5 µM.
The like results for `CCOC(=O)CN(C(=O)[C@H](CC(=O)NC[C@@H]1CCCN(C(=N)N)C1)NC(=O)Cc1ccccc1)C1CC1` [Example 13e] were, in that order, 2.6 µM, 35 and 91 µM.
The matching figures for `CCCCC(=O)N[C@@H](CC(=O)NC[C@@H]1CCCN(C(=N)N)C1)C(=O)N(CC(=O)O)C1CC1` [Example 14a, [[(S)-3-[(S)-1-(Amino-imino-methyl)-piperidin-3-ylmethylcarbamoyl]-2-pentanoylamino-propionyl]-cyclopropyl-amino]acetic acid]: 0.019 µM, 3368 and 64 µM.
For the molecule `CCCCCC(=O)N[C@@H](CC(=O)NC[C@@H]1CCCN(C(=N)N)C1)C(=O)N(CC(=O)O)C1CC1` [Example 14b, [[(S)-3-[(S)-1-(amino-imino-methyl)-piperidin-3-ylmethylcarbamoyl]-2-hexanoylamino-propionyl]-cyclopropyl-amino]-acetic acid], the Ki was 0.036 µM in test [1] and 25 µM in test [2]. Also, the “q (ratio of the inhibition of trypsin to the inhibition of thrombin)” value in test [1] came to 694.
The matching figures for `N=C(N)N1CCC[C@@H](CNC(=O)C[C@H](NC(=O)c2cc(Cl)ccn2)C(=O)N(CC(=O)O)C2CC2)C1` [Example 14c, [[(S)-3-[(S)-1-(amino-imino-methyl)-piperidin-3-ylmethylcarbarnoyl]-2-(4-chloro-pyridin-2-ylcarbonylamino)-propionyl]cyclopropyl-amino]-acetic acid]: 0.057 µM, 50 µM and 877.
Regarding `N=C(N)N1CCC[C@@H](CNC(=O)C[C@H](NC(=O)c2ccccc2)C(=O)N(CC(=O)O)C2CC2)C1` [Example 14d, [[(S)-3-[(S)-1-(amino-imino-methyl)-piperidin-3-ylmethylcarbarnoyl]-2-benzoylamino-propionyl]-cyclopropyl-amino]-acetic acid], in test [1], the Ki was found to be 0.25 µM and the “q (ratio of the inhibition of trypsin to the inhibition of thrombin)” value came to 332. The Ki in test [2] was 83 µM.
Take `N=C(N)N1CCC[C@@H](CNC(=O)C[C@H](NC(=O)Cc2ccccc2)C(=O)N(CC(=O)O)C2CC2)C1` [Example 14e, [[(S)-3-[(S)-1-(amino-imino-methyl)-piperidin-3-ylmethylcarbamoyl]-2-benzylcarbonylamino-propionyl]-cyclopropyl-amino]acetic acid]: in test [1], affinity was put at a Ki of 0.081 µM and the “q (ratio of the inhibition of trypsin to the inhibition of thrombin)” value worked out at 852. The molecule further yielded an inhibition constant Ki in test [2] of 69 µM.
Consider `N=C(N)N1CCC[C@@H](CNC(=O)C[C@H]2C(=O)N(C3CC3)CC(=O)N2S(=O)(=O)c2ccc3ccccc3c2)C1` [Example 15, N-[(S)-1-(amino-imino-methyl)-piperidin-3-ylmethyl]-2-[(S)-4-cyclopropyl-1-naphthalen-2-ylsulphonyl-3,6-dioxo-piperazin-2-yl]-acetamide], for which, in test [1], affinity was put at a Ki of 0.0018 µM and the “q (ratio of the inhibition of trypsin to the inhibition of thrombin)” value is recorded as 7222. This molecule registered a Ki in test [2] of 13 µM.
The matching figures for `N=C(N)N1CCC[C@@H](CNC(=O)C[C@H]2C(=O)N(C3CCCC3)CC(=O)N2S(=O)(=O)c2ccc3ccccc3c2)C1` [Example 16, N-[(S)-1-(amino-imino-methyl)-piperidin-3-ylmethyl]-2[(S)-4-cyclopentyl-1-naphthalen-2-ylsulphonyl-3,6-dioxopiperazin-2-yl]-acetamide]: 0.11 µM, 127 and 14 µM.
The matching figures for `CCCCS(=O)(=O)N1CCN(CC(=O)O)C(=O)C1CC(=O)NC[C@@H]1CCCN(C(=N)N)C1` (stereo partly drawn) [Example 17, [3-[(S)-1-(amino-imino-methyl)-piperidin-3-ylmethylcarbamoylmethyl]-4-butylsulphonyl-2-oxo-piperazin-1yl]acetic acid]: 1.3 µM, 74 and 96 µM.
The like results for `CCCCN1CC(=O)N[C@@H](CC(=O)NC[C@@H]2CCCN(C(=N)N)C2)C1=O` [Example 18, N-[(S)-1-(amino-imino-methyl)-piperidin-3-ylmethyl]-2-[(S)-2,6-dioxo-4-butyl-piperazin-2-yl]-acetamide] were, in that order, 2.2 µM, 268 and 590 µM.
In the case of `CC(C)(C)OC(=O)N[C@@H](CC(=O)NC[C@@H]1CCCN(C(=N)N)C1)C(=O)N(CCNC(=O)c1cnccn1)C1CC1` [Example 19, (S)-N4-[(S)-1-(amino-imino-methyl)-piperidin-3-yimethyl]-2-tert-butoxycarbonylamino-N1-cyclopropyl-N1-(2-pyrazin-2-ylcarbonylamino)-succinamide], in test [1], the inhibitory constant (Ki) worked out at 0.0069 µM and the “q (ratio of the inhibition of trypsin to the inhibition of thrombin)” value came to 449. In addition, the Ki in test [2] was 3.1 µM.
The matching figures for `N=C(N)N1CCC[C@@H](CNC(=O)C[C@H](NC(=O)CCc2c[nH]c3ccccc23)C(=O)N(CCNC(=O)c2cnccn2)C2CC2)C1` [Example 21a, (S)-N4-[(S)-1-(amino-imino-methyl)-piperidin-3-ylmethyl]-N1-cyclopropyl-2-(3-indol-3-yl-propionylamino)-N1-(2-pyrazin-2-ylcarbonylamino-ethyl)-succinamide]: 0.0023 µM, 3870 and 8.9 µM.
The like results for `COC(=O)CC[C@H](O)C(=O)N[C@@H](CC(=O)NC[C@@H]1CCCN(C(=N)N)C1)C(=O)N(CCNC(=O)c1cnccn1)C1CC1` [Example 21b, methyl (S)-4-[(S)-2-[(S)-1-(amino-imino-methyl)-piperidin-3-ylmethylcarbonyl]-1-[cyclopropyl-(2-pyrazin-2-ylcarbonylaminoethyl)-carbamoyl]-ethylcarbamoyl]-4-hydroxy-butrate] were, in that order, 0.0072 µM, 1944 and 14 µM.
